{
  "source": "EPA's ToxRefDB 2",
  "key": {"[1]": {"test_system": "rat", "settings": "Multigenerational reproductive toxicity study, WIST Han Ibm: WIST ISPF, Oral, Feed, dose end: 2 generation"}, "[2]": {"test_system": "rabbit", "settings": "Prenatal developmental toxicity study, himalayan, Oral, Gavage/Intubation, dose end: 18 GD, group: maternal"}, "[3]": {"test_system": "dog", "settings": "Chronic toxicity, beagle, Oral, Feed, dose end: 52 week, group: systemic"}, "[4]": {"test_system": "rat", "settings": "Prenatal developmental toxicity study, wistar, Oral, Gavage/Intubation, dose end: 16 GD"}, "[5]": {"test_system": "rat", "settings": "Multigenerational reproductive toxicity study, sprague dawley, Oral, Feed, dose end: 3 generation"}, "[6]": {"test_system": "rat", "settings": "Combined chronic toxicity/carcinogenicity, sprague dawley, Oral, Feed, dose end: 24 month, group: systemic"}, "[7]": {"test_system": "rat", "settings": "Combined chronic toxicity/carcinogenicity, sprague dawley, Oral, Feed, dose end: 24 month"}, "[8]": {"test_system": "rat", "settings": "Multigenerational reproductive toxicity study, sprague dawley, Oral, Feed, dose end: 2 generation"}, "[9]": {"test_system": "mouse", "settings": "Carcinogenicity, cd1, Oral, Feed, dose end: 78 week, group: systemic"}, "[10]": {"test_system": "dog", "settings": "Chronic toxicity; beagle; Oral; Gavage/Intubation; dose end: 12 month; group: systemic; systemic / clinical chemistry / alkaline phosphatase (alp/alk) / alkaline phosphatase (alp/alk) + systemic / clinical chemistry / urea …"}, "[11]": {"settings": "group: offspring, systemic / in life observation / body weight / offspring (pup) weight + systemic / in life observation / body weight / offspring (pup) …"}, "[12]": {"settings": "group: parental, systemic / in life observation / body weight / body weight + systemic / in life observation / body weight / body weight gain + systemic / …"}, "[13]": {"settings": "reproductive / reproductive performance / aborted / aborted + systemic / in life observation / body weight / body weight gain + systemic / …"}, "[14]": {"settings": "systemic / clinical chemistry / alkaline phosphatase (alp/alk) / alkaline phosphatase (alp/alk) + systemic / organ weight / liver / absolute…"}, "[15]": {"settings": "group: developmental, systemic / in life observation / body weight / fetal weight + systemic / in life observation / body weight / offspring (pup) weight gain"}, "[16]": {"settings": "group: developmental, systemic / in life observation / body weight / fetal weight + systemic / in life observation / body weight / offspring (pup) weight gain + …"}, "[17]": {"settings": "group: maternal, systemic / in life observation / body weight / body weight gain + systemic / in life observation / food consumption / food efficiency"}, "[18]": {"settings": "group: maternal, systemic / in life observation / body weight / body weight gain + systemic / in life observation / food consumption / food efficiency + …"}, "[19]": {"settings": "group: offspring, systemic / in life observation / body weight / offspring (pup) weight"}, "[20]": {"settings": "group: offspring, systemic / in life observation / body weight / offspring (pup) weight + developmental / offspring survival late / viability index / …"}, "[21]": {"settings": "group: parental, systemic / in life observation / body weight / body weight + systemic / in life observation / body weight / body weight gain"}, "[22]": {"settings": "group: reproductive, reproductive / offspring survival early / live fetuses / live fetuses"}, "[23]": {"settings": "group: cholinesterase, cholinesterase / cholinesterase / cholinesterase / brain cholinesterase (che) + cholinesterase / cholinesterase / cholinesterase / …"}, "[24]": {"settings": "group: systemic, systemic / pathology microscopic / nerve / cholesterol cleft(s) + systemic / pathology microscopic / nerve / mineralization + systemic / …"}, "[25]": {"settings": "group: cholinesterase, cholinesterase / cholinesterase / cholinesterase / erythrocyte cholinesterase (che)"}, "[26]": {"settings": "group: offspring, systemic / in life observation / body weight / offspring (pup) weight + developmental / offspring survival late / lactation index / …"}, "[27]": {"settings": "group: parental, systemic / in life observation / body weight / body weight + systemic / in life observation / body weight / body weight gain + systemic / in…"}, "[28]": {"settings": "group: reproductive, reproductive / offspring survival early / litter size / litter size"}, "[29]": {"settings": "systemic / in life observation / body weight / body weight gain + systemic / pathology microscopic / ovary / cyst + systemic / in life …"}},
  "data": [
    {"smiles": "CCOC(=O)C1=NN(c2ccc(Cl)cc2Cl)C(C)(C(=O)OCC)C1", "note": "(configuration not stated) [Mefenpyr-diethyl]", "values": [
      {"measurement": "LEL", "setting": "[1]; [11]", "value": 250, "unit": "mg/kg/day"},
      {"measurement": "LOAEL", "setting": "[1]; [11]", "value": 250, "unit": "mg/kg/day"},
      {"measurement": "NEL", "setting": "[1]; [11]", "value": 50, "unit": "mg/kg/day"},
      {"measurement": "NOAEL", "setting": "[1]; [11]", "value": 50, "unit": "mg/kg/day"},
      {"measurement": "LEL", "setting": "[1]; [12]", "value": 250, "unit": "mg/kg/day"},
      {"measurement": "LOAEL", "setting": "[1]; [12]", "value": 250, "unit": "mg/kg/day"},
      {"measurement": "NEL", "setting": "[1]; [12]", "value": 50, "unit": "mg/kg/day"},
      {"measurement": "NOAEL", "setting": "[1]; [12]", "value": 50, "unit": "mg/kg/day"},
      {"measurement": "LOAEL", "setting": "[2]; reproductive / reproductive performance / aborted / aborted + reproductive / offspring survival early / live fetuses / live fetuses", "value": 250, "unit": "mg/kg/day"},
      {"measurement": "LEL", "setting": "[2]; reproductive / reproductive performance / aborted / aborted + reproductive / offspring survival early / live fetuses / live fetuses + …", "value": 250, "unit": "mg/kg/day"},
      {"measurement": "NEL", "setting": "[2]; [13]", "value": 100, "unit": "mg/kg/day"},
      {"measurement": "NOAEL", "setting": "[2]; [13]", "value": 100, "unit": "mg/kg/day"},
      {"measurement": "LOAEL", "setting": "[3]; [14]", "value": 260, "unit": "mg/kg/day"},
      {"measurement": "NOAEL", "setting": "[3]; [14]", "value": 51.4, "unit": "mg/kg/day"},
      {"measurement": "LEL", "setting": "[3]; systemic / organ weight / liver / relative to body weight", "value": 57.6, "unit": "mg/kg/day"},
      {"measurement": "NEL", "setting": "[3]; systemic / organ weight / liver / relative to body weight + systemic / clinical chemistry / alkaline phosphatase (alp/alk) / alkaline …", "value": 11.1, "unit": "mg/kg/day"},
      {"measurement": "LOAEL", "setting": "[4]; [15]", "value": 1000, "unit": "mg/kg/day"},
      {"measurement": "NOAEL", "setting": "[4]; [15]", "value": "< 1000", "unit": "mg/kg/day"},
      {"measurement": "LEL", "setting": "[4]; [16]", "value": 1000, "unit": "mg/kg/day"},
      {"measurement": "NEL", "setting": "[4]; [16]", "value": "< 1000", "unit": "mg/kg/day"},
      {"measurement": "LOAEL", "setting": "[4]; [17]", "value": 1000, "unit": "mg/kg/day"},
      {"measurement": "NOAEL", "setting": "[4]; [17]", "value": "< 1000", "unit": "mg/kg/day"},
      {"measurement": "LEL", "setting": "[4]; [18]", "value": 1000, "unit": "mg/kg/day"},
      {"measurement": "NEL", "setting": "[4]; [18]", "value": "< 1000", "unit": "mg/kg/day"}
    ]},
    {"smiles": "CCSC(=O)N(CC)C1CCCCC1", "note": "[Cycloate]", "values": [
      {"measurement": "LEL", "setting": "[5]; [19]", "value": 24, "unit": "mg/kg/day"},
      {"measurement": "LOAEL", "setting": "[5]; [19]", "value": 24, "unit": "mg/kg/day"},
      {"measurement": "NEL", "setting": "[5]; [20]", "value": 8, "unit": "mg/kg/day"},
      {"measurement": "NOAEL", "setting": "[5]; [20]", "value": 8, "unit": "mg/kg/day"},
      {"measurement": "LEL", "setting": "[5]; [21]", "value": 24, "unit": "mg/kg/day"},
      {"measurement": "LOAEL", "setting": "[5]; [21]", "value": 24, "unit": "mg/kg/day"},
      {"measurement": "NEL", "setting": "[5]; [21]", "value": 8, "unit": "mg/kg/day"},
      {"measurement": "NOAEL", "setting": "[5]; [21]", "value": 8, "unit": "mg/kg/day"},
      {"measurement": "LEL", "setting": "[5]; [22]", "value": 72, "unit": "mg/kg/day"},
      {"measurement": "LOAEL", "setting": "[5]; [22]", "value": "> 72", "unit": "mg/kg/day"},
      {"measurement": "NEL", "setting": "[5]; [22]", "value": 24, "unit": "mg/kg/day"},
      {"measurement": "NOAEL", "setting": "[5]; [22]", "value": "≥ 72", "unit": "mg/kg/day"},
      {"measurement": "LEL", "setting": "[6]; systemic / organ weight / heart / absolute", "value": 2.4, "unit": "mg/kg/day"},
      {"measurement": "NEL", "setting": "[6]; systemic / organ weight / heart / absolute + systemic / pathology microscopic / skeletal muscle / atrophy + systemic / pathology microscopic…", "value": 0.4, "unit": "mg/kg/day"},
      {"measurement": "LOAEL", "setting": "[6]; systemic / pathology microscopic / spinal cord / atrophy + systemic / pathology microscopic / spinal cord / degeneration", "value": 3.1, "unit": "mg/kg/day"},
      {"measurement": "NOAEL", "setting": "[6]; systemic / pathology microscopic / spinal cord / atrophy + systemic / pathology microscopic / spinal cord / degeneration + systemic / in …", "value": 0.5, "unit": "mg/kg/day"},
      {"measurement": "LEL", "setting": "[7]; [23]", "value": 8, "unit": "mg/kg/day"},
      {"measurement": "LOAEL", "setting": "[7]; [23]", "value": 8, "unit": "mg/kg/day"},
      {"measurement": "NEL", "setting": "[7]; [23]", "value": "< 8", "unit": "mg/kg/day"},
      {"measurement": "NOAEL", "setting": "[7]; [23]", "value": "< 8", "unit": "mg/kg/day"},
      {"measurement": "LEL", "setting": "[7]; [24]", "value": 8, "unit": "mg/kg/day"},
      {"measurement": "LOAEL", "setting": "[7]; [24]", "value": 8, "unit": "mg/kg/day"},
      {"measurement": "NEL", "setting": "[7]; [24]", "value": "< 8", "unit": "mg/kg/day"},
      {"measurement": "NOAEL", "setting": "[7]; [24]", "value": "< 8", "unit": "mg/kg/day"},
      {"measurement": "LEL", "setting": "[8]; [25]", "value": 50, "unit": "mg/kg/day"},
      {"measurement": "LOAEL", "setting": "[8]; [25]", "value": "> 50", "unit": "mg/kg/day"},
      {"measurement": "NEL", "setting": "[8]; [25]", "value": 20, "unit": "mg/kg/day"},
      {"measurement": "NOAEL", "setting": "[8]; [25]", "value": "≥ 50", "unit": "mg/kg/day"},
      {"measurement": "LEL", "setting": "[8]; [19]", "value": 20, "unit": "mg/kg/day"},
      {"measurement": "LOAEL", "setting": "[8]; [19]", "value": 20, "unit": "mg/kg/day"},
      {"measurement": "NEL", "setting": "[8]; [26]", "value": 2.5, "unit": "mg/kg/day"},
      {"measurement": "NOAEL", "setting": "[8]; [26]", "value": 2.5, "unit": "mg/kg/day"},
      {"measurement": "LEL", "setting": "[8]; [27]", "value": 20, "unit": "mg/kg/day"},
      {"measurement": "LOAEL", "setting": "[8]; [27]", "value": 20, "unit": "mg/kg/day"},
      {"measurement": "NEL", "setting": "[8]; [27]", "value": 2.5, "unit": "mg/kg/day"},
      {"measurement": "NOAEL", "setting": "[8]; [27]", "value": 2.5, "unit": "mg/kg/day"},
      {"measurement": "LEL", "setting": "[8]; [28]", "value": 50, "unit": "mg/kg/day"},
      {"measurement": "LOAEL", "setting": "[8]; [28]", "value": 50, "unit": "mg/kg/day"},
      {"measurement": "NEL", "setting": "[8]; [28]", "value": 20, "unit": "mg/kg/day"},
      {"measurement": "NOAEL", "setting": "[8]; [28]", "value": 20, "unit": "mg/kg/day"},
      {"measurement": "LOAEL", "setting": "[9]; systemic / in life observation / body weight / body weight gain + systemic / pathology microscopic / ovary / cyst", "value": 167, "unit": "mg/kg/day"},
      {"measurement": "LEL", "setting": "[9]; [29]", "value": 167, "unit": "mg/kg/day"},
      {"measurement": "NEL", "setting": "[9]; [29]", "value": 49, "unit": "mg/kg/day"},
      {"measurement": "NOAEL", "setting": "[9]; [29]", "value": 49, "unit": "mg/kg/day"},
      {"measurement": "LEL", "setting": "[10]", "value": 50, "unit": "mg/kg/day"},
      {"measurement": "LOAEL", "setting": "[10]", "value": 50, "unit": "mg/kg/day"},
      {"measurement": "NEL", "setting": "[10]", "value": 0.5, "unit": "mg/kg/day"},
      {"measurement": "NOAEL", "setting": "[10]", "value": 0.5, "unit": "mg/kg/day"}
    ]}
  ]
}
